{"source": "patent US10273235B2", "about": "“Compositions and methods for inhibiting β-lactamase” (LegoChem Biosciences, Inc., priority 2015, dated 2019)", "key": {"[1]": {"biological_target": "T1, OXA-48 β-lactamase (class D) (Klebsiella pneumoniae, UniProt Q6XEC0)", "T1 construct": "MICs of bacterial strains used for extraction of enzymes; endogenous in cells; host or cells: bacterial strain carrying OXA-48 (E. coli according to the earlier reading)", "T1 sequence (Q6XEC0 23-265, looked up)": "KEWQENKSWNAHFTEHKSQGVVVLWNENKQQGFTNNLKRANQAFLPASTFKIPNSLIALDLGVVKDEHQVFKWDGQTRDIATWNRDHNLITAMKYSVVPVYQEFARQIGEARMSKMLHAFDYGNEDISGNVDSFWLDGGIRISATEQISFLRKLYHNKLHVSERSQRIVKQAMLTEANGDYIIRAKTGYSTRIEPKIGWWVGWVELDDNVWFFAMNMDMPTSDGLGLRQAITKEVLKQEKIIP", "experiment": "Inhibitory activity against β-lactamases (nitrocefin), OXA-48", "format": "biochemical", "conditions": "100 μM nitrocefin, 30° C., pH 6.8", "description": "(§1) More diluted stocks were prepared as necessary. Enzyme activity was determined by monitoring the change of absorbance at 492 nm using the characteristic molecular extinction coefficient (Δε492=17,400 M^−1 cm^−1) of nitrocefin by a Shimazu UV-1650PC spectrophotometer. The nitrocefin was purchased from OXOID. Kinetic measurements were run at 30° C. in 10 mM MES[2-(N-morpholino)ethanesulfonic acid]buffer (pH 6.8) or 10 mM MES[2-(N-morpholino)ethanesulfonic acid] buffer (pH 6.8), […] BSA and 50 mM sodium bicarbonate. Reactions were performed in 2.5 mL cuvettes with 100 μM nitrocefin and initiated by adding 1.5 nM to 2.5 nM enzyme. The first 180 s of each reaction was used to measure initial rates. Data were evaluated using Microsoft Excel. Concentration dependent inhibition of enzyme was measured using different concentrations of inhibitors resulting from two-fold dilution series. Reaction progress at every concentration of inhibitor was measured in triplicates. IC50 values were calculated using 4-parameter log fits using XL Fit curve fitting software (www.idbs.com) for Excel using the following equation:\n(§2) [formula] where y is the remaining enzyme activity (in %) and x is the corresponding concentration. he fitted IC50 parameter is the relative IC50, and is defined as the concentration giving a response half way between the fitted top (B) and bottom (A) of the curve."}, "[2]": {"biological_target": "T2, CMY-10 β-lactamase (class C) (Klebsiella aerogenes, UniProt Q99QC1)", "T2 construct": "MICs of bacterial strains used for extraction of enzymes; endogenous in cells", "T2 sequence (Q99QC1 24-382)": "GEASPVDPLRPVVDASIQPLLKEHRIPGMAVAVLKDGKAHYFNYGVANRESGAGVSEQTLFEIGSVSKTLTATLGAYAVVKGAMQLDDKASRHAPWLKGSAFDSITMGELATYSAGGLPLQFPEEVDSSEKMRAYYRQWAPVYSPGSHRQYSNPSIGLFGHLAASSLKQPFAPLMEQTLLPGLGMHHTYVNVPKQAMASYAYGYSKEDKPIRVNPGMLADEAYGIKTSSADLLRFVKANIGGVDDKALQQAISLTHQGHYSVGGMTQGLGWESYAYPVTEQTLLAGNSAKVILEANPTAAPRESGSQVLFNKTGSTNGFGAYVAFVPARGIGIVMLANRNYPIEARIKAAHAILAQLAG", "experiment": "Inhibitory activity against β-lactamases (nitrocefin), CMY-10", "format": "biochemical", "description": "as §1, §2"}, "E. aerogenes K9911729": {"tested_on": "E. aerogenes K9911729", "experiment": "MIC of strain used for extraction of enzymes, E. aerogenes K9911729 (CMY-10, TEM-1, SHV-12, AmpC (DQ478697))", "format": "cell-based"}, "Mouse pharmacokinetics": {"experiment": "Mouse pharmacokinetics", "format": "in vivo, ICR mouse", "conditions": "IV, 50 mg/kg, plasma", "description": "The pharmacokinetics values were evaluated in a mouse model. The test compound (50 mg/kg) was injected into the tail vein of 8 week old ICR mouse, weighing approximately 26-30 g. […] Lab conditions were temperature of 22±3° C. and humidity of 50±20%."}, "[3]": {"biological_target": "T3, NDM-1 β-lactamase (class B) (Klebsiella pneumoniae, UniProt C7C422)", "T3 construct": "MICs of bacterial strains used for extraction of enzymes; endogenous in cells; host or cells: bacterial strain carrying NDM-1 (E. coli according to the earlier reading)", "T3 sequence (C7C422 29-270, looked up)": "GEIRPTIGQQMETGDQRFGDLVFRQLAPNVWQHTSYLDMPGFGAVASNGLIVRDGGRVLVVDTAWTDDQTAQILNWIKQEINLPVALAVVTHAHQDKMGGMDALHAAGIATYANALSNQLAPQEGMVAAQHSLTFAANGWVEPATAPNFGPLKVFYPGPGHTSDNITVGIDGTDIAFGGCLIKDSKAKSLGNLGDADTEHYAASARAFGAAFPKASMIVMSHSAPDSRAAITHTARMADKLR", "experiment": "Inhibitory activity against β-lactamases (nitrocefin), NDM-1", "format": "biochemical", "conditions": "100 μM nitrocefin, 30° C., pH 6.8", "description": "as §1, §2"}, "[4]": {"biological_target": "KPC-3 β-lactamase (class A) (Klebsiella pneumoniae, UniProt Q9F663, H272Y)", "sequence (Q9F663 25-293 H272Y)": "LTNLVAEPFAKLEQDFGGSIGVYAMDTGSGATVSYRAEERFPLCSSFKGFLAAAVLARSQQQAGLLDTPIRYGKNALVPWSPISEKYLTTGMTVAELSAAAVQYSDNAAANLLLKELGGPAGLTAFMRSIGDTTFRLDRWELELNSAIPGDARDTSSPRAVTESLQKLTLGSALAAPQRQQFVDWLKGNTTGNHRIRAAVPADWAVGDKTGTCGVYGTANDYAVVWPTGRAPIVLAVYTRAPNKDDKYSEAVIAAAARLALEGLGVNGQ", "experiment": "Inhibitory activity against β-lactamases (nitrocefin), KPC-3", "format": "biochemical, K. pneumoniae", "description": "as §1, §2"}, "K. pneumoniae CL5761": {"tested_on": "K. pneumoniae CL5761", "experiment": "MIC of strain used for extraction of enzymes, K. pneumoniae CL5761 (KPC-3, TEM-216, SHV-5)", "format": "cell-based", "conditions": "BLI: 4 ug/mL", "description": "(§3) MIC90 (μg/mL) is the lowest concentration of an antibiotic that will inhibit the visible growth of 90% of microorganisms after incubation as compared with a control group to which the antibiotic is not treated.\n(§4) MIC values were measured by the broth microdilution method developed by the Clinical and Laboratory Standards Institute (CLSI) (see CLSI M07-A9, Methods for Dilution Antimicrobial Susceptibility Test for Bacteria that Grow Aerobically; Approved Standard-Ninth Edition (2012): CLSI, Villanova, Pa.). The in vitro antibacterial activity was measured with respect to the following 9 clinical isolates: P. aeruginosa (3 strains); K. pneumoniae (6 strains). The in vitro antibacterial activity of selected compounds was measured with respect to the following 15 clinical isolates: K. pneumoniae (15 strains)."}, "E. coli ECO200": {"tested_on": "E. coli ECO200", "experiment": "MIC of strain used for extraction of enzymes, E. coli ECO200 (NDM-1, TEM-1, CTX-M-15, EC (AmpC), OXA-2 type)", "format": "cell-based"}, "E. coli TOPDXA048": {"tested_on": "E. coli TOPDXA048", "experiment": "MIC of strain used for extraction of enzymes, E. coli TOPDXA048 (OXA-48, TEM-116, AmpC (NC_000913))", "format": "cell-based"}, "E. coli K0519020": {"tested_on": "E. coli K0519020", "experiment": "MIC of strain used for extraction of enzymes, E. coli K0519020 (CTX-M-15, TEM-1, OXA-1, AmpC (NC_000913))", "format": "cell-based"}, "[5]": {"tested_on": "K. pneumoniae clinical strains expressing β-lactamases", "experiment": "BLI potentiation MIC, panel of K. pneumoniae clinical strains expressing β-lactamases (isoxazoline vs. isoxazole)", "format": "cell-based", "conditions": "in combination with Meropenem and LCB10-0200; Table 12", "description": "as §3, §4"}}, "note": "Counter-ions that a name gives are not always drawn.", "data": [{"smiles": "O=C1N2C[C@@H](CC[C@H]2C2=NO[C@]3(CCNC3)C2)N1OS(=O)(=O)O", "note": "[Example 17, [(2S,5R)-2-[(5R)-1-oxa-2,7-diazaspiro[4.4]non-2-en-3-yl]-7-oxo-1,6-diazabicyclo[3.2.1]octan-6-yl] hydrogen sulfate]", "values": [{"measurement": "IC50", "setting": "[1]", "result": 29.5, "unit": "µM"}, {"measurement": "IC50", "setting": "[2]", "result": 0.185, "unit": "µM"}, {"measurement": "MIC of Meropenem with BLI", "setting": "E. aerogenes K9911729; BLI: 4 ug/mL", "result": "<0.0312", "unit": "µg/mL"}, {"measurement": "MIC", "setting": "E. aerogenes K9911729; Klebsiella aerogenes, K9911729, read-out: MIC of LCB10-0200 with BLI", "result": "< 0.0312", "unit": "µg/mL"}, {"measurement": "AUC(0-inf)", "setting": "Mouse pharmacokinetics; ICR", "result": "31000 ± 500", "unit": "ng·h/mL"}, {"measurement": "Cmax", "setting": "Mouse pharmacokinetics; ICR", "result": "64.2 ± 3.88", "unit": "µg/mL"}, {"measurement": "Tmax", "setting": "Mouse pharmacokinetics; ICR", "result": 4.8, "unit": "min"}, {"measurement": "clearance", "setting": "Mouse pharmacokinetics; ICR", "result": 27, "unit": "mL/min/kg"}, {"measurement": "half-life", "setting": "Mouse pharmacokinetics; ICR", "result": "75 ± 9", "unit": "min"}, {"measurement": "Vd", "setting": "Mouse pharmacokinetics; ICR, read-out: Vss", "result": "1.81 ± 0.14", "unit": "L/kg"}, {"measurement": "AUCnorm", "setting": "Mouse pharmacokinetics", "result": "0.62 ± 0.01", "unit": "kg·h/L"}, {"measurement": "Cmax, norm", "setting": "Mouse pharmacokinetics", "result": "1.28 ± 0.08", "unit": "kg/L"}, {"measurement": "IC50", "setting": "[3]", "result": 1190, "unit": "µM"}, {"measurement": "IC50", "setting": "[4]", "result": 2.74, "unit": "µM"}, {"measurement": "MIC of Meropenem with BLI", "setting": "K. pneumoniae CL5761", "result": 0.5, "unit": "µg/mL"}, {"measurement": "MIC", "setting": "K. pneumoniae CL5761; Klebsiella pneumoniae, CL5761, read-out: MIC of LCB10-0200 with BLI", "result": 0.125, "unit": "µg/mL"}, {"measurement": "MIC of Meropenem with BLI", "setting": "E. coli ECO200; BLI: 4 ug/mL", "result": "<0.0312", "unit": "µg/mL"}, {"measurement": "MIC", "setting": "E. coli ECO200; Escherichia coli, ECO200, read-out: MIC of LCB10-0200 with BLI", "result": "< 0.0312", "unit": "µg/mL"}, {"measurement": "MIC of Meropenem with BLI", "setting": "E. coli TOPDXA048; BLI: 4 ug/mL", "result": "<0.0312", "unit": "µg/mL"}, {"measurement": "MIC", "setting": "E. coli TOPDXA048; Escherichia coli, TOPDXA048, read-out: MIC of LCB10-0200 with BLI", "result": "< 0.0312", "unit": "µg/mL"}, {"measurement": "MIC of Meropenem with BLI", "setting": "E. coli K0519020; BLI: 4 ug/mL", "result": 0.0625, "unit": "µg/mL"}, {"measurement": "MIC", "setting": "E. coli K0519020; Escherichia coli, K0519020, read-out: MIC of LCB10-0200 with BLI", "result": "< 0.0312", "unit": "µg/mL"}]}, {"smiles": "NC[C@H]1CC([C@@H]2CC[C@@H]3CN2C(=O)N3OS(=O)(=O)O)=NO1", "note": "[Example 15, [(2S)-2-[(5R)-5-(aminomethyl)-4,5-dihydroisoxazol-3-yl]-7-oxo-1,6-diazabicyclo[3.2.1]octan-6-yl] hydrogen sulfate]", "values": [{"measurement": "IC50", "setting": "[1]", "result": 6.42, "unit": "µM"}, {"measurement": "IC50", "setting": "[2]", "result": 0.123, "unit": "µM"}, {"measurement": "IC50", "setting": "[3]", "result": 1650, "unit": "µM"}, {"measurement": "IC50", "setting": "[4]", "result": 3.03, "unit": "µM"}, {"measurement": "coverage on various β-lactamases compared with Cubist-1", "setting": "[5]", "result": "much broader coverage on various β-lactamases than Cubist-1"}]}]}
